This note sets out measurements from patent US6040320A, “2-substituted imidazoles useful in the treatment of inflammatory diseases” (Ortho-McNeil Pharmaceutical, Inc., priority 1998, dated 2000).

The structures appear in SMILES notation. Read-outs that look alike come from different tables or passages of the source.

One test has as its target T1, p38 (Homo sapiens, UniProt Q16539).
T1 construct: 6xHis (N); made in house; host or cells: E. coli
Nature of the test: in vitro inhibition of p38 (CPSB): purified recombinant 6xHis-p38, myelin basic protein substrate, 33P-ATP. It is filed as biochemical.

Test [1] deals with TNF-α. Nature of the test: in vitro whole cell assay: LPS-stimulated TNF-α production in PBMC (ELISA). The settings on record: for IC50: read-out: TNF-α IC50. It is filed as cell-based, human. As to the method:
In addition to the enzyme assay, the compounds of the invention were tested in an in vitro whole cell assay using peripheral blood mononuclear cells ("PBMC") which were obtained from human blood as follows. Freshly obtained venous blood was anticoagulated with heparin, diluted with an equal volume of phosphate buffered saline ("PBS") and placed in a sterile tube or other container. Aliquots (30 mL) of this mixture were transferred to centrifuge tubes which were underlaid with Ficoll-Hypaque (15 mL). The prepared tubes were centrifuged at 400×g without braking for 30 min at room temperature. Approximately 1/2 to 2/3 of the platelet layer above the mononuclear cell band was removed with a pipet. The majority of the mononuclear cell layer was carefully removed using a pipet and these PBMCs were diluted with PBS and spun at 600×g for 15 min. The resulting PBMCs were washed with another portion of PBS and spun at 400×g for 10 min at room temperature. The recovered pellets were diluted in low endotoxin RPMI/1% FCS culture medium and gave a cell concentration of 0.5-2.0 X 10^6 PMBC/mL. A small volume of the suspension was removed for counting on a hemocytometer and the remaining preparation was centrifuged at 200×g for 15 min at room temperature. The recovered pelleted PMBC were resuspended in RPMI/1% FCS to a concentration of 1.67×10^6 /mL.
To run the assay, the PBMC suspension (180 μL) was transferred to duplicate wells of a 96-well flat-bottom microtiter plate and incubated for 1 h at 37° C. A solution of test compound (10 μL: prepared at 20×the desired final concentration) was added to each well and the plate was incubated for 1 h at 37° C. A solution (10 μL) of LPS in RPMI/1% FCS (200 ng/mL) was added and the wells were incubated overnight at 37° C. The supernate (100 μL) was removed from each well and diluted with RPMI/1% FCS (400 μL). The samples were analyzed for TNF-α using a commercial ELISA kit (Genzyme). […] Since imidazoles which are unsubstituted at the 1-position are subject to tautomerization, the substituents listed for R1 and R2 are interchangeable when R3 is hydrogen.

Test [2] concerns TNF-α. Nature of the test: in vivo rodent assay: inhibition of LPS induced TNF-α production, mouse. The settings on record: oral, 25 mg/kg, LPS 1 mg/kg i.p. As to the method:
Mice (BALB / cJ females, Jackson Laboratories) or rats (Lewis males, Charles River) were fasted for 30 min prior to oral dosing with 5-10 mL/kg of test compound at 5-50 mg/kg. Thirty minutes after dosing, the animals were injected intraperitoneally with LPS at 1 mg/kg and returned to their cages for I h. Animals were anesthetized by CO2, exsanguinated by cardiac puncture and whole blood collected (0.1-0.7 mL). The blood was allowed to clot and serum was transferred to a centrifuge tube. This sample was centrifuged, serum was collected, aliquoted and frozen at -80° C. Samples were tested by commercial ELISAs for TNF-α (Endogen for mouse TNF-α and Biosource for rat TNF-α). Compounds 15 and 56 inhibited TNF-α production in the mouse at 88% and 37% respectively at a dose of 25 mg/kg.

The test system of the next test is IL-1β. Kind of test: in vitro IL-1β production by LPS-stimulated plastic-adherent cells from PBMC (ELISA). Type of test: cell-based. The following applies: adherent cells from human PBMC, read-out: inhibited the production of IL-1B, IC50. As to the method: Aliquots (30 mL) of this mixture were transferred to centrifuge tubes which were underlaid with Ficoll-Hypaque (15 mL). The prepared tubes were centrifuged at 400×g without braking for 30 min at room temperature. […] A small volume of the suspension was removed for counting on a hemocytometer and the remaining preparation was centrifuged at 200×g for 15 min at room temperature.
A general note: ELISA stands for enzyme-linked immunosorbent assay.

Usually IC50 stands for the midpoint of a concentration-inhibition curve.

T1 sequence (Q16539 whole entry): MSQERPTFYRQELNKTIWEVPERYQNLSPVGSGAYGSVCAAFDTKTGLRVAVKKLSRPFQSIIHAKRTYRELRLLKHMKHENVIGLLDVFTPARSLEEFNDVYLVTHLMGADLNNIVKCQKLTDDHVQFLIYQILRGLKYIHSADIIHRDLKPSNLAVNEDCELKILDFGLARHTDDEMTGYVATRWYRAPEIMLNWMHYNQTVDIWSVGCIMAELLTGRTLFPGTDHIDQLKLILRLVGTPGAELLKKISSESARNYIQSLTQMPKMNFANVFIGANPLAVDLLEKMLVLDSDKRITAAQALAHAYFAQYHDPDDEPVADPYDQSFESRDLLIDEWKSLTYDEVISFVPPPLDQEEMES
Method for p38: Compounds of the invention were measured for their ability to inhibit the activity of p38 by the following in vitro assay.
A solution (38 μL) of purified recombinant p38 (where the amount of enzyme was determined empirically considering the linear range of the assay and the acceptable signal to noise ratio; 6xHis-p38 expressed in E.coli), myelin basic protein substrate (also determined empirically), a buffer of pH 7.5 (Hepes:25 mM, MgCl2 :10 mM, MnCl2 :10 mM) were added to 92 wells of a 96-well round bottom polypropylene plate. The remaining wells were used for control ("CTRL") and background ("BKG"). The CTRL was prepared with the enzyme, substrate buffer and 2% DMSO, and the BKG was prepared with substrate buffer and 2% DMSO. A solution (12 μL) of the test compound in DMSO (compounds were diluted to 125 μM in 10% DMSO/H2 O and assayed at 25 μM where the final DMSO concentration was 2%) was added to the testing wells. The ATP/^33 P-ATP solution (10 μL: containing 50 μM unlabeled ATP and 1 μCi ^33 P-ATP) was added to all wells and the completed plates were mixed and incubated at 30° C. for 30 min. Icecold 50% TCA/10 mM sodium phosphate (60 μL) were added to each well and the plates were kept on ice for 15 min. The contents of each well were transferred to the wells of a 96-well filterplate (Millipore, MultiScreen-DP) and the filterplate was placed on a vacuum manifold, fitted with a waste collection tray. The wells were washed five times with 10% TCA/10 mM sodium phosphate (200 μL) under vacuum. MicroScint-20 scintillant was added, the plates were sealed using Topseal-S sheets and counted in a Packard TopCount scintillation counter using a ^33 P liquid program with color quench correction, where the output is in color quench-corrected cpm. The % inhibition of the test compounds was calculated by the following formula: % inhibition=[1-(sample-BKG)/(CTRL-BKG)]×100.
Although compounds were initially tested at 25 μM, if warranted the compounds were tested at 4-fold increments above and below that concentration. In addition, lC50 s were calculated for some compounds using the Deltagraph 4-parameter curve fitting program.

With `O=C1c2ccccc2C(=O)N1CCCCSc1nc(-c2ccncc2)c(-c2ccc(F)cc2)[nH]1` [Compound 27], the IC50 at p38 amounted to 2460 nM; in the test on TNF-α [1] (Homo sapiens, PBMC) it was 2000 nM.
For the molecule `C=CCSc1nc(-c2ccncc2)c(-c2ccc(F)cc2)[nH]1` [Compound 37], on p38, the IC50 was 750 nM.
In the case of `CC(=O)OCCCCc1nc(-c2ccncc2)c(-c2ccc(F)cc2)n1COCC[Si](C)(C)C` [Compound 45], the CPSB % inhibition on p38 (@ 20 μm) amounted to 8%. For the same molecule, in the test on TNF-α [1] (human PBMC, LPS), the “TNF-α inhibition in words” value was “inactive”.
In the case of `CC(=O)OCCCCc1nc(-c2ccncc2)c(-c2ccc(F)cc2)n1C(=O)OCc1ccccc1` [Compound 18], the CPSB % inhibition on p38 (@ 5 μm) is 10%.
Regarding `OCCCCc1nc(-c2ccncc2)c(-c2ccc(F)cc2)[nH]1` [Compound 16b, 4-[5(4)-(4-Fluorophenyl)4(5)-(4-pyridyl)imidazol-2-yl]butanol], the IC50 at p38 came out at 1590 nM; with TNF-α [1] (Homo sapiens, PBMC), 10 nM.
Turning to `CCSc1nc(-c2ccncc2)c(-c2ccc(F)cc2)[nH]1` [Compound 39], at p38, the IC50 amounted to 400 nM.
As to `CNC(=O)Sc1nc(-c2ccc(F)cc2)c(-c2ccncc2)[nH]1` [Compound 5, 5(4)-(4-Fluorophenyl)-2-(N-methylaminocarbonyl)thio-4(5)-(4-pyridyl)-imidazole], the CPSB % inhibition at p38 (@ 20 μm) is given as 81%.
As to `O=C(NCCCSc1nc(-c2ccncc2)c(-c2ccc(F)cc2)[nH]1)c1ccccc1` [Compound 26], the IC50 on p38 amounted to 2180 nM; in the test with TNF-α [1] (Homo sapiens, PBMC) it was 100 nM.
`O=C1c2ccccc2C(=O)N1CCCn1c(CO)nc(-c2ccc(F)cc2)c1-c1ccncc1` [Compound 56]: the “inhibited TNF-α production in the mouse” value with TNF-α [2] turned out to be 37%. Further, the IC50 in the test on TNF-α [1] (human PBMC, LPS) was 30 nM.
Regarding `O=C(CCCO)c1nc(-c2ccncc2)c(-c2ccc(F)cc2)[nH]1` [Compound 10, 4-Hydroxy-1-[5-(4-fluorophenyl)-4-(4-pyridyl)-imidazol-2-yl]butanone], the IC50 in the test with IL-1β came out at 800 nM; in the test on TNF-α [1] (human PBMC, LPS), 400 nM.
Consider `O=C(NCCCSc1nc(-c2ccncc2)c(-c2ccc(F)cc2)[nH]1)c1cccc2ccccc12` [Compound 28], for which the 50% inhibitory concentration (IC50) in the test with IL-1β was 86 nM; at p38, 1250 nM; in the test on TNF-α [1] (Homo sapiens, PBMC), 97 nM.
In the case of `Fc1ccc(-c2[nH]c(SCC3CC3)nc2-c2ccncc2)cc1` [Compound 23], the IC50 at p38 fell in the range of 1000 to 1800 nM.
As for `O=C(NCCCSc1nc(-c2ccc(F)cc2)c(-c2ccncc2)[nH]1)c1ccco1` [Compound 29], the CPSB % inhibition on p38 (@ 20 μm) is on record as 91%. Further, the concentration for half-maximal inhibition (IC50) with TNF-α [1] (human PBMC, LPS) was 112 nM.
`C[Si](C)(C)CCOCn1c(CO)nc(-c2ccncc2)c1-c1ccc(F)cc1` [Compound 36]: the CPSB % inhibition at p38 (@ 5 μm) turned out to be 6%.
On to `O=C1c2ccccc2C(=O)N1CCCSc1nc(-c2ccc(F)cc2)c(-c2ccncc2)[nH]1` [Compound 2, 5(4)-(4-Fluorophenyl)-2-(3-phthalimidoprop-1-yl)thio-4(5)-(4-pyridyl)-imidazole], for which the 50% inhibitory concentration (IC50) at p38 is 790 to 1800 nM; in the test on TNF-α [1] (Homo sapiens, PBMC), 1000 nM.
For `CCCS(=O)(=O)Cc1nc(-c2ccncc2)c(-c2ccc(F)cc2)[nH]1` [Compound 59], the IC50 is 350 nM in the test on IL-1β and 55 nM in the test on TNF-α [1] (human PBMC, LPS).
For the molecule `O=Cc1nc(-c2ccncc2)c(-c2ccc(F)cc2)[nH]1` [Compound 8, 5(4)-(4-Fluorophenyl)-4(5)-(4-pyridyl)-2-imidazole carboxaldehyde], the IC50 stood at 800 nM on p38 and 140 nM in the test with TNF-α [1] (Homo sapiens, PBMC).
With `NCCCSc1nc(-c2ccc(F)cc2)c(-c2ccncc2)[nH]1` [Compound 3, 2-(3-Aminoprop-1-yl)thio-5(4)-(4-fluorophenyl)4(5)-(4-pyridyl)-imidazole], on p38 (@ 20 μm), the CPSB % inhibition amounted to 26%.
As to `Fc1ccc(-c2[nH]c(S)nc2-c2ccncc2)cc1` [Compound 21], the IC50 at p38 came to 1900 nM.
As for `CC(=O)OCCCCc1nc(-c2ccncc2)c(-c2ccc(F)cc2)[nH]1` [Compound 16a, 4-[5(4)-(4-Fluorophenyl)-(5)-(4-pyridyl)imidazol-2-yl]butayl acetate], the IC50 at p38 came to 1420 nM.
Take `O=S(=O)(NCCCSc1nc(-c2ccc(F)cc2)c(-c2ccncc2)[nH]1)c1ccccc1` [Compound 30]: the CPSB % inhibition on p38 (@ 20 μm) was determined as 92%. For the same molecule, the concentration for half-maximal inhibition (IC50) in the test with TNF-α [1] (human PBMC, LPS) was determined as 100 nM.
`C[Si](C)(C)CCOCn1c(CCCCO)nc(-c2ccncc2)c1-c1ccc(F)cc1` [Compound 46]: at p38 (@ 20 μm), the CPSB % inhibition came out at 9%. Besides, the “TNF-α inhibition in words” value in the test with TNF-α [1] (human PBMC, LPS) is “inactive”.
For `O=S(=O)(CCO)Cc1nc(-c2ccncc2)c(-c2ccc(F)cc2)[nH]1` [Compound 15, 5-(4-Fluorophenyl)-2-[4-hydroxy-2-sulfonyl-but-1-yl]-4-(4-pyridyl)-imidazole], the “inhibited TNF-α production in the mouse” value in the test on TNF-α [2] is 88%. In addition, in the test on TNF-α [1] (human PBMC, LPS), the IC50 stood at 40 nM.
For the molecule `CC(=O)OCCCCc1nc(-c2ccc(F)cc2)c(-c2ccncc2)n1Cc1ccccc1` [Compound 17, 4-[1-Benzyl-4-(4-fluorophenyl)-5-(4-pyridyl)imidazol-2-yl]butyl acetate], the IC50 at p38 turned out to be 2630 nM; in the test on TNF-α [1] (Homo sapiens, PBMC) it was 500 nM.
Consider `O=C1c2ccccc2C(=O)N1CCCCc1nc(-c2ccncc2)c(-c2ccc(F)cc2)n1Cc1ccccc1` [Compound 43], for which, at p38 (@ 5 μm), the CPSB % inhibition is given as 8%.
Regarding `O=C1c2ccccc2C(=O)N1CCSc1nc(-c2ccc(F)cc2)c(-c2ccncc2)[nH]1` [Compound 25], the CPSB % inhibition at p38 (@ 5 μm) was found to be 52%. The IC50 in the test with TNF-α [1] (human PBMC, LPS) was found to be 500 nM.
On to `O=C(NCCCSc1nc(-c2ccncc2)c(-c2ccc(F)cc2)[nH]1)c1cccs1` [Compound 4, 5(4)-(4-Fluorophenyl)-2-(3-(thien-2-ylamido)prop-1-yl)thio-4(5)-(4-pyridyl)-imidazole], for which the IC50 at p38 came to 1250 nM; in the test with TNF-α [1] (Homo sapiens, PBMC), 10 nM.
Take `N#CCSc1nc(-c2ccncc2)c(-c2ccc(F)cc2)[nH]1` [Compound 38]: on p38, the IC50 worked out at 400 nM.
